Data published in paper PMC9224473 (International Journal of Molecular Sciences, 2022).
Converted amounts (≈) assume the structure as drawn.

Key:
[1] = system: S. epidermidis ATCC 35984; assay: MIC, broth microdilution, standard strain; format: cell-based, Staphylococcus epidermidis; conditions: Staphylococcus epidermidis, ATCC35984, 19 h, 35 °C
[2] = system: SW620 (human metastatic colon cancer); assay: MTT cytotoxicity assay; format: cell-based; conditions: Homo sapiens, SW-620, 72 h, mean SD
Description: (§1) The human cell lines SW480 (primary colon cancer), SW620 (lymph node metastatic colon cancer from the same patient as primary cancer cells), HCT116 (colon carcinoma), HepG2 (liver cancer), and HaCaT (immortalized keratinocytes) were obtained from the American Type Culture Collection (ATCC, Rockville, MD, USA). The SW480, SW620 and HCT116 cells were grown in MEM (ThermoSci, Waltham, MA, USA), HepG2 and HaCaT in DMEM High Glucose (Biowest SAS, Nuaillé, France) supplemented with 10% foetal bovine serum (FBS), HEPES (20 mM), and antibiotics (100 U mL^−1 of Penicillin and 100 μg mL^−1 of Streptomycin). The cells were incubated in a humidified incubator at 37 °C/5% CO2, until 80–90% confluence was reached.
The cell viability was assessed by using of MTT salt [3-(4,5-dimethylthiazol-2-yl)-2,5-diphenyltetrazolium bromide] converted by mitochondrial dehydrogenase, occurring in living cells. […] The untreated cells were used as the control.
(§2) Subsequently, the medium was removed and dimethyl sulfoxide (DMSO) with isopropanol (1:1) was added to dissolve the formazan crystals. The optical density was measured using UVM 340 reader (ASYS Hitech GmbH, Eugendorf, Austria) at a wavelength of 570 nm. The experiments were repeated three times. The cell viability was calculated as the percent of MTT reduced in treated cells versus control cells (untreated cells). The number of viable cells cultured without tested compounds was assumed as 100%. A decreased relative MTT level indicates decreased cell viability. The IC50 values were estimated using CompuSyn version 1.0.

P. aeruginosa 659 = assay: MIC, broth microdilution, clinical strain; format: cell-based, Pseudomonas aeruginosa; conditions: Pseudomonas aeruginosa, 659, read-out: MIC P. aeruginosa 659, 19 h, 35 °C
E. coli 600 = assay: MIC, broth microdilution, clinical strain; format: cell-based, Escherichia coli; conditions: Escherichia coli, 600, 19 h, 35 °C
S. epidermidis KR 4243 = assay: MIC, broth microdilution, clinical strain; format: cell-based, Staphylococcus epidermidis; conditions: Staphylococcus epidermidis, KR4243, 19 h, 35 °C
S. aureus T 5595 = assay: MIC, broth microdilution, clinical strain; format: cell-based, Staphylococcus aureus; conditions: Staphylococcus aureus, T5595, 19 h, 35 °C
E. coli 510 = assay: MIC, broth microdilution, clinical strain; format: cell-based, Escherichia coli; conditions: Escherichia coli, 510, 19 h, 35 °C
S. aureus T 5591 = assay: MIC, broth microdilution, clinical strain; format: cell-based, Staphylococcus aureus; conditions: Staphylococcus aureus, T5591, 19 h, 35 °C
S. aureus ATCC 25923 = assay: MIC, broth microdilution, standard strain; format: cell-based, Staphylococcus aureus; conditions: Staphylococcus aureus, ATCC25923, 19 h, 35 °C
S. aureus NCTC 4163 = assay: MIC, broth microdilution, standard strain; format: cell-based, Staphylococcus aureus; conditions: Staphylococcus aureus, NCTC4163, 19 h, 35 °C
S. pasteuri KR 4358 = assay: MIC, broth microdilution, clinical strain; format: cell-based, Staphylococcus pasteuri; conditions: Staphylococcus pasteuri, KR4358, 19 h, 35 °C
[3] = system: S. epidermidis ATCC 12228; assay: MIC, broth microdilution, standard strain; format: cell-based, Staphylococcus epidermidis; conditions: Staphylococcus epidermidis, ATCC12228, 19 h, 35 °C
S. aureus ATCC 29213 = assay: MIC, broth microdilution, standard strain; format: cell-based, Staphylococcus aureus; conditions: Staphylococcus aureus, ATCC29213, 19 h, 35 °C
E. coli 520 = assay: MIC, broth microdilution, clinical strain; format: cell-based, Escherichia coli; conditions: Escherichia coli, 520, 19 h, 35 °C
S. aureus ATCC 6538 = assay: MIC, broth microdilution, standard strain; format: cell-based, Staphylococcus aureus; conditions: Staphylococcus aureus, ATCC6538, 19 h, 35 °C
E. coli ATCC 25922 = assay: MIC, broth microdilution, standard strain; format: cell-based, Escherichia coli; conditions: 35 °C; for MIC: Escherichia coli, ATCC25922, 19 h; for MIC E. coli ATCC 25922: 19 h
[4] = system: HCT116 (human colon cancer); assay: MTT cytotoxicity assay; format: cell-based; conditions: Homo sapiens, HCT-116, 72 h, mean SD
Description: as §1
(§3) The cell viability was assessed by using of MTT salt [3-(4,5-dimethylthiazol-2-yl)-2,5-diphenyltetrazolium bromide] converted by mitochondrial dehydrogenase, occurring in living cells. The cells were seeded in 96-well plates at a density of 1 × 10^4 cells per well and allowed to adhere for 24 h at 37 °C in a CO2 humidified incubator. […]. The untreated cells were used as the control.
as §2, with “After 72 h incubation, the medium was replaced with 200 µL per well of free-serum medium containing 0.5 mg mL^−1 MTT and incubated for 4 h at 37 °C in a CO2 humidified incubator. Subsequently,” for “Subsequently,”

[5] = system: HaCaT (human immortal keratinocyte cell line); assay: MTT cytotoxicity assay; format: cell-based; conditions: Homo sapiens, HaCaT, 72 h, mean SD, read-out: IC50 HaCaT (normal cells)
Description: as §1, §3
as §2, with “After 72 h incubation, the medium was replaced with 200 µL per well of free-serum medium containing 0.5 mg mL^−1 MTT and incubated for 4 h at 37 °C in a CO2 humidified incubator. Subsequently,” for “Subsequently,”

[6] = system: HepG2 (human liver cancer); assay: MTT cytotoxicity assay; format: cell-based; conditions: Homo sapiens, HepG2, 72 h, mean SD
Description: as §1, §3
as §2, with “After 72 h incubation, the medium was replaced with 200 µL per well of free-serum medium containing 0.5 mg mL^−1 MTT and incubated for 4 h at 37 °C in a CO2 humidified incubator. Subsequently,” for “Subsequently,”

[7] = system: SW480 (human primary colon cancer); assay: MTT cytotoxicity assay; format: cell-based; conditions: Homo sapiens, SW480, 72 h, mean SD
Description: as §1, §3
as §2, with “After 72 h incubation, the medium was replaced with 200 µL per well of free-serum medium containing 0.5 mg mL^−1 MTT and incubated for 4 h at 37 °C in a CO2 humidified incubator. Subsequently,” for “Subsequently,”

P. aeruginosa ATCC 15442 = assay: MIC, broth microdilution, standard strain; format: cell-based, Pseudomonas aeruginosa; conditions: Pseudomonas aeruginosa, ATCC15442, 19 h, 35 °C

Row | Compound | MIC [1] [µg/mL] | IC50 [2] [µM] | MIC (P. aeruginosa 659) [µg/mL] | MIC (E. coli 600) [µg/mL] | MIC (S. epidermidis KR 4243) [µg/mL] | MIC (S. aureus T 5595) [µg/mL] | MIC (E. coli 510) [µg/mL] | MIC (S. aureus T 5591) [µg/mL] | MIC (S. aureus ATCC 25923) [µg/mL] | MIC (S. aureus NCTC 4163) [µg/mL] | MIC (S. pasteuri KR 4358) [µg/mL] | MIC [3] [µg/mL] | MIC (S. aureus ATCC 29213) [µg/mL] | MIC (E. coli 520) [µg/mL] | MIC (S. aureus ATCC 6538) [µg/mL] | MIC (E. coli ATCC 25922) [µg/mL] | IC50 [4] [µM] | IC50 [5] [µM] | IC50 [6] [µM] | IC50 [7] [µM] | other results
1 | CC(C)[C@@H]1CC[C@@H](C)C[C@H]1OC(=O)CCCCN1CCN(c2cc3c(cc2F)c(=O)c(C(=O)O)cn3C2CC2)CC1 [Compound 5, 1-cyclopropyl-6-fluoro-7-{4-[5-((1R,2S,5R)-2-isopropyl-5-methylcyclohexyloxy)-5-oxopentyl)piperazin-1-yl)-4-oxo-1,4-dihydroquinoline-3-carboxylic acid] | 8 (≈ 14 µM) | 26.5 ± 2.1 | > 256 | 64 (≈ 112 µM) | 4 (≈ 7.02 µM) | 4 (≈ 7.02 µM) | > 256 | 2 (≈ 3.51 µM) | 8 (≈ 14 µM) | 4 (≈ 7.02 µM) | 4 (≈ 7.02 µM) | 8 (≈ 14 µM) | 4 (≈ 7.02 µM) | 64 (≈ 112 µM) | 4 (≈ 7.02 µM) | 16 (≈ 28.1 µM) | 35.3 ± 1.7 | 43.3 ± 4.4 | 49.4 ± 4.6 | 55.4 ± 3.8 | MIC (P. aeruginosa ATCC 15442): 256 µg/mL (≈ 449 µM)
2 | Cc1ccc(C(C)C)c(OCC(=O)N2CCN(c3cc4c(cc3F)c(=O)c(C(=O)O)cn4C3CC3)CC2)c1 [Compound 9, 1-cyclopropyl-6-fluoro-7-{4-[2-(2-isopropyl-5-methylphenoxy)acetyl]piperazin-1-yl}-4-oxo-1,4-dihydroquinoline-3-carboxylic acid] | 4 (≈ 7.67 µM) | 49.1 ± 4.1 | 256 (≈ 491 µM) | 32 (≈ 61.4 µM) | 8 (≈ 15.3 µM) | 4 (≈ 7.67 µM) | > 256 | 4 (≈ 7.67 µM) | 2 (≈ 3.83 µM) | 2 (≈ 3.83 µM) | 8 (≈ 15.3 µM) | 8 (≈ 15.3 µM) | 2 (≈ 3.83 µM) | 32 (≈ 61.4 µM) | 2 (≈ 3.83 µM) | 16 (≈ 30.7 µM) | 44.5 ± 4 | 19.9 ± 2.2 | 25.7 ± 0.8 | 28.2 ± 0.6 | MIC (P. aeruginosa ATCC 15442): 256 µg/mL (≈ 491 µM)
3 | Cc1ccc(C(C)C)c(OC(=O)CCN2CCN(c3cc4c(cc3F)c(=O)c(C(=O)O)cn4C3CC3)CC2)c1 [Compound 11, 1-cyclopropyl-6-fluoro-7-{4-[3-(2-isopropyl-5-methylphenoxy)-3-oxopropyl]piperazin-1-yl}-4-oxo-1,4-dihydroquinoline-3-carboxylic acid] | 4 (≈ 7.47 µM) | 43.5 ± 7.5 | 16 (≈ 29.9 µM) | 4 (≈ 7.47 µM) | 4 (≈ 7.47 µM) | 8 (≈ 14.9 µM) | 256 (≈ 478 µM) | 4 (≈ 7.47 µM) | 4 (≈ 7.47 µM) | 4 (≈ 7.47 µM) | 8 (≈ 14.9 µM) | 4 (≈ 7.47 µM) | 4 (≈ 7.47 µM) | 8 (≈ 14.9 µM) | 4 (≈ 7.47 µM) | 2 to 4 (≈ 3.73 to 7.47 µM) | 39.1 ± 5.8 | > 100 | 51.3 ± 4.1 | 33.7 ± 6.6 | MIC E. coli ATCC 25922 (E. coli ATCC 25922): 4 µg/mL (≈ 7.47 µM); MIC (P. aeruginosa ATCC 15442): 16 µg/mL (≈ 29.9 µM)
4 | Cc1ccc(C(C)C)c(OC(=O)CCCCN2CCN(c3cc4c(cc3F)c(=O)c(C(=O)O)cn4C3CC3)CC2)c1 [Compound 13, 1-cyclopropyl-6-fluoro-7-{4-[5-(2-isopropyl-5-methylphenoxy)-5-oxopentyl]piperazin-1-yl}-4-oxo-1,4-dihydroquinoline-3-carboxylic acid] | 2 (≈ 3.55 µM) | 50.2 ± 0.8 | 128 (≈ 227 µM) | 8 (≈ 14.2 µM) | 2 (≈ 3.55 µM) | 2 (≈ 3.55 µM) | 128 (≈ 227 µM) | 2 (≈ 3.55 µM) | 4 (≈ 7.1 µM) | 2 (≈ 3.55 µM) | 2 (≈ 3.55 µM) | 2 (≈ 3.55 µM) | 2 (≈ 3.55 µM) | 4 (≈ 7.1 µM) | 2 (≈ 3.55 µM) | 2 to 4 (≈ 3.55 to 7.1 µM) | 50.2 ± 3.4 | > 100 | 33.8 ± 2.1 | 48.1 ± 2.8 | MIC E. coli ATCC 25922 (E. coli ATCC 25922): 4 µg/mL (≈ 7.1 µM); MIC (P. aeruginosa ATCC 15442): 16 µg/mL (≈ 28.4 µM)
5 | Cc1ccc(C(C)C)c(OC(=O)CCCCCN2CCN(c3cc4c(cc3F)c(=O)c(C(=O)O)cn4C3CC3)CC2)c1 [Compound 14, 1-cyclopropyl-6-fluoro-7-{4-[6-(2-isopropyl-5-methylphenoxy)-6-oxohexyl]piperazin-1-yl}-4-oxo-1,4-dihydroquinoline-3-carboxylic acid] | 1 (≈ 1.73 µM) | 53.1 ± 0.3 | 64 (≈ 111 µM) | 8 (≈ 13.8 µM) | 2 (≈ 3.46 µM) | 2 (≈ 3.46 µM) | 128 (≈ 222 µM) | 4 (≈ 6.92 µM) | 1 (≈ 1.73 µM) | 1 (≈ 1.73 µM) | 2 (≈ 3.46 µM) | 1 (≈ 1.73 µM) | 2 (≈ 3.46 µM) | 16 (≈ 27.7 µM) | 2 (≈ 3.46 µM) | 2 to 4 (≈ 3.46 to 6.92 µM) | 38.1 ± 3.4 | 31.8 ± 1.9 | 44.4 ± 3.5 | 35.2 ± 1.2 | MIC E. coli ATCC 25922 (E. coli ATCC 25922): 2 µg/mL (≈ 3.46 µM); MIC (P. aeruginosa ATCC 15442): 16 µg/mL (≈ 27.7 µM)
